The NIST ThermoML archive (doi:10.1021/je4005323)

Settings: Liquid; for speed of sound: Pulse-echo method; for mass density: Vibrating tube method

CCCCC/C=C\C/C=C\CCCCCCCC(=O)OC [methyl (Z,Z)-9,12-octadecadienate]
Settings | mass density, 293.15 K [kg/m3] | mass density, 303.15 K [kg/m3] | mass density, 313.15 K [kg/m3] | mass density, 323.15 K [kg/m3] | mass density, 333.15 K [kg/m3] | mass density, 343.15 K [kg/m3] | speed of sound, 283.15 K [m/s] | speed of sound, 303.15 K [m/s] | speed of sound, 323.15 K [m/s] | speed of sound, 343.15 K [m/s]
101.3 kPa | 885.2 | 877.7 | 870.9 | 863.7 | 856.3 | 849.1 | 1455 | 1382.9 | 1312.6 | 1245.1
10000 kPa | 891.2 | 884 | 877.1 | 870.1 | 863 | 856.2 | 1498.2 | 1428.9 | 1361.4 | 1297.9
20000 kPa | 896.6 | 889.6 | 882.9 | 876.3 | 869.5 | 863 | 1539 | 1472.2 | 1407.2 | 1346.9
30000 kPa | 901.8 | 895 | 888.5 | 882 | 875.4 | 869.3 | 1577.6 | 1513.6 | 1450.8 | 1392.6
40000 kPa | 906.8 | 900.1 | 893.7 | 887.3 | 881.3 | 875.1 | 1614.3 | 1552 | 1491.3 | 1435.4
50000 kPa | 911.4 | 905 | 898.8 | 892.4 | 886.5 | 880.8 | 1649.2 | 1588.6 | 1530.3 | 1475.1
60000 kPa | 915.9 | 909.5 | 903.3 | 897.4 | 891.5 | 885.9 | 1682.6 | 1623.5 | 1567.2 | 1513.2
70000 kPa | 920.2 | 914 | 908 | 902.1 | 896.4 | 890.9 | 1714 | 1656.3 | 1601.4 | 1549.4
80000 kPa | 924 | 918.1 | 912.2 | 906.7 | 900.9 | – | 1745.2 | 1688.3 | 1634.3 | –
90000 kPa | 928.2 | 922.2 | 916.6 | 910.9 | 905.4 | – | 1774.4 | 1719.1 | 1666.2 | –
100000 kPa | 931.3 | 926.2 | 920.6 | 915.1 | 910 | – | 1803.2 | 1748.7 | 1697.2 | –
110000 kPa | – | – | – | – | – | – | 1830.9 | 1776.9 | 1726.4 | –
120000 kPa | – | – | – | – | – | – | 1857.8 | 1804.4 | 1754.6 | –
130000 kPa | – | – | – | – | – | – | 1884.6 | 1831.3 | 1782.4 | –
140000 kPa | – | – | – | – | – | – | 1909.9 | 1857 | 1808.7 | –
150000 kPa | – | – | – | – | – | – | 1934.7 | 1883.6 | 1834.7 | –
170000 kPa | – | – | – | – | – | – | – | 1932.3 | 1884.5 | –
190000 kPa | – | – | – | – | – | – | – | 1979.7 | 1931.7 | –
210000 kPa | – | – | – | – | – | – | – | 2023.6 | 1977.6 | –
